The NIST ThermoML archive (doi:10.1016/j.jct.2009.07.017)
Numbers after ± are expanded uncertainties.

Key:
[1] = xn = mol fraction of the nth substance listed; settings: 101.3 kPa, Liquid, Vibrating tube method
[2] = refractive index (Na D-line) (dimensionless); settings: 298.15 K; 101.33 kPa; Liquid; Standard Abbe refractometry
[3] = 298.15 K; 101.33 kPa; Liquid; Vibrating tube method

CCCCCCCCC [nonane] + c1ccccc1
mass density [kg/m3], [1]
Settings | x1 = 0.0982 | x1 = 0.1996 | x1 = 0.304 | x1 = 0.4001 | x1 = 0.497 | x1 = 0.5995 | x1 = 0.6989 | x1 = 0.7959 | x1 = 0.8928 | x1 = 1
283.15 K | 856.81 ± 0.13 | 829.82 ± 0.13 | 807.64 ± 0.14 | 790.32 ± 0.15 | 775.74 ± 0.17 | 762.31 ± 0.18 | 751.53 ± 0.2 | 741.95 ± 0.21 | 733.72 ± 0.23 | 725.51 ± 0.24
298.15 K | 841.94 ± 0.13 | 815.82 ± 0.13 | 794.17 ± 0.14 | 777.31 ± 0.16 | 763.05 ± 0.17 | 750.12 ± 0.18 | 739.44 ± 0.2 | 730.03 ± 0.21 | 721.91 ± 0.23 | 713.99 ± 0.25

CCOS(=O)(=O)[O-].CC[n+]1cccc(C)c1 [1-ethyl-3-methylpyridinium ethylsulfate]
Settings | mass density [kg/m3] | refractive index
[2] | – | 1.50591 ± 0.00037
[3] | 1219.61 ± 0.42 | –

c1ccccc1 [benzene] + CCCCCCCCC
[1], x2 = 0
Settings | mass density [kg/m3]
283.15 K | 889.51 ± 0.1
298.15 K | 873.57 ± 0.1

CCCCCCCC [octane] + c1ccccc1
mass density [kg/m3], [1]
Settings | x1 = 0.1024 | x1 = 0.2013 | x1 = 0.3006 | x1 = 0.4234 | x1 = 0.5001 | x1 = 0.5985 | x1 = 0.6982 | x1 = 0.7972 | x1 = 0.9031 | x1 = 1
283.15 K | 855.9 ± 0.13 | 828.82 ± 0.13 | 806.11 ± 0.13 | 782.24 ± 0.14 | 769.31 ± 0.14 | 754.84 ± 0.15 | 741.81 ± 0.16 | 730.25 ± 0.16 | 719.42 ± 0.17 | 710.5 ± 0.17
298.15 K | 840.84 ± 0.13 | 814.43 ± 0.13 | 792.21 ± 0.13 | 768.91 ± 0.14 | 756.54 ± 0.15 | 742.05 ± 0.15 | 729.34 ± 0.16 | 718.02 ± 0.17 | 707.31 ± 0.17 | 698.6 ± 0.18

c1ccccc1 [benzene] + CCCCCCCC
[1], x2 = 0
Settings | mass density [kg/m3]
283.15 K | 889.51 ± 0.1
298.15 K | 873.57 ± 0.1
